Experimental data reported in the supplement of paper PMC11962398.

Key:
[1] = compound: T1, C[C@H]1CNCCN1c1nccc(-c2noc3c2CCC[C@@]32CCCc3sc(N)c(C#N)c32)n1 [BI-2493]; assay: 1 - AUC of viability dose-response curve (sensitivity) (fraction); higher = more sensitive; details: 5 days
Experimental: (§1)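 PRISM pooled barcoded cancer cell line viability screen (Broad Institute) with BI-2493 at 8 doses in threefold dilutions from 0.00457 to 10 µmol/L, 5-day treatment; curves fitted per cell line. IC50 is undefined (placeholder) for resistant lines. AUC is capped at 1, and sensitivity is reported as 1 − AUC.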

[2] = compound: T1, BI-2493; details: 5 days
Experimental: as §1

Test System | 1 - AUC of viability dose-response curve [1] | IC50 of cell viability [2] [µM]
U2973_HAEMATOPOIETIC_AND_LYMPHOID_TISSUE | 0.33 | 0.921
CH157MN_CENTRAL_NERVOUS_SYSTEM | 0.0235 | 8.61
SUSA_TESTIS | 0.243 | 1.09
YD10B_UPPER_AERODIGESTIVE_TRACT | 0.0787 | 5.08
BICR56_UPPER_AERODIGESTIVE_TRACT | 0.152 | 4.72
JHUEM7_ENDOMETRIUM | 0.101 | 5.02
BT549_BREAST | 0.0828 | 8.89
CAL12T_LUNG | 0.201 | 4.93
NCIH2444_LUNG | 0.102 | 6.69
YD15_SALIVARY_GLAND | 0.0555 | 6.99
MEG01_HAEMATOPOIETIC_AND_LYMPHOID_TISSUE | 0.0154 | 9.19
SNU216_STOMACH | 0.0735 | 8.63
KMS11_HAEMATOPOIETIC_AND_LYMPHOID_TISSUE | 0.272 | 3.13
CORL279_LUNG | 0.134 | 7.86
NCIH2452_PLEURA | 0.00394 | > 10
PEA1_OVARY | 0.0757 | 5.96
COLO679_SKIN | 0.146 | 4.47
OV17R_OVARY | 0.044 | 9.34
LS513_LARGE_INTESTINE | 0.494 | 0.175
HEC108_ENDOMETRIUM | 0.123 | 5.68
NCIH1793_LUNG | 0.16 | 8.29
U266B1_HAEMATOPOIETIC_AND_LYMPHOID_TISSUE | 0.0732 | 7.47
GAMG_CENTRAL_NERVOUS_SYSTEM | 0.0333 | 8.24
DAOY_CENTRAL_NERVOUS_SYSTEM | 0.0237 | 9.62
CAS1_CENTRAL_NERVOUS_SYSTEM | 0.0158 | 9.1
SNU81_LARGE_INTESTINE | 0.129 | 9.39

Test System | 1 - AUC of viability dose-response curve [1] | IC50 of cell viability [2] [µM]
SKMEL24_SKIN | 0.157 | 9.18
GSS_STOMACH | 0.19 | 3.3
SW1573_LUNG | 0.108 | 7.72
DMS79_LUNG | 0.0188 | > 10
HCC2108_LUNG | 0.0106 | 9.5
TCCPAN2_PANCREAS | 0.0795 | 8.86
RH30_SOFT_TISSUE | 0.0138 | 9.22
NCIH838_LUNG | 0.0686 | 7.55
BOKU_CERVIX | 0.119 | > 10
KALS1_CENTRAL_NERVOUS_SYSTEM | 0.0195 | 9.22
AGS_STOMACH | 0.313 | 0.844
JAR_PLACENTA | 0.242 | 3.54
NZOV9_OVARY | 0.155 | 8.42
HSC5_SKIN | 0.126 | 5.05
ICC9_BILIARY_TRACT | 0.225 | 4.52
COLO668_LUNG | 0.103 | 5.95
HCC1359_LUNG | 0.00729 | 9.67
786O_KIDNEY | 0.241 | 2.69
EMTOKA_ENDOMETRIUM | 0.0999 | 4.31
OCIC4P_OVARY | 0.115 | 6.47
CW9019_SOFT_TISSUE | 0.111 | 3.99
C75_LARGE_INTESTINE | 0.22 | 9.28
DU145_PROSTATE | 0.172 | > 10
NCIH596_LUNG | 0.00278 | > 10
PATU8988S_PANCREAS | 0.197 | 1.14
JL1_PLEURA | 0.13 | > 10

Test System | 1 - AUC of viability dose-response curve [1] | IC50 of cell viability [2] [µM]
SNU61_LARGE_INTESTINE | 0.307 | 0.465
NCIH322_LUNG | 0.257 | 2.29
HEC6_ENDOMETRIUM | 0.0397 | 8.15
M059K_CENTRAL_NERVOUS_SYSTEM | 0.00953 | 9.49
H4_CENTRAL_NERVOUS_SYSTEM | 0.0861 | 5.48
HUH1_LIVER | 0.0866 | 4.85
NCIH1623_LUNG | 0.0102 | 9.93
ESS1_ENDOMETRIUM | 0.362 | 1.43
GI1_CENTRAL_NERVOUS_SYSTEM | 0.132 | 3.59
SKGI_ENDOMETRIUM | 0.142 | 4.89
ISTMES1_PLEURA | 0.0873 | 8.84
PC14_LUNG | 0.181 | 3.98
NCIH1581_LUNG | 0.0823 | 8.08
C80_LARGE_INTESTINE | 0.3 | 0.477
HEC151_ENDOMETRIUM | 0.0839 | 5.89
CORL88_LUNG | 0.143 | 4.54
LNCAPCLONEFGC_PROSTATE | 0.152 | 3.64
MDAMB453_BREAST | 0.115 | 5.47
PANC0504_PANCREAS | 0.286 | 1.18
UO31_KIDNEY | 0.0602 | 9.54
HUPT4_PANCREAS | 0.147 | 3.9
H413_UPPER_AERODIGESTIVE_TRACT | 0.126 | > 10
NCIH2126_LUNG | 0.142 | 9.82
SW900_LUNG | 0.115 | 8.99
HCC56_LARGE_INTESTINE | 0.242 | 2.37
